# Laboratory results reported in patent publication US10071092B2, “Polymorphic forms of vortioxetine and its pharmaceutically acceptable salts” (ALEMBIC PHARMACEUTICALS LIMITED, priority 2014, dated 2018).
# Counter-ions that a name gives are not always drawn.
# Key:
# [1] = Moisture content of the solid; type: physicochemical
# Protocol: Thermo gravimetric analysis (TGA) used for estimation of solvent/water content of dried material is performed using a TA-instruments TGA-Q500 about 10 mg sample is heated 10°/min in an open pan under nitrogen flow.
# Vortioxetine Adipate (30.0 g) and dichloromethane (450 ml) were charged in round bottom flask stirred it for 5 mins. Solution of NaOH (8.1 g in 300 ml water) and solution of NaCl (7.5 g in 75 ml water) were added into above resulting solution and stirred it till clear solution was observed. Organic layer was separated out. HBr in acetic acid (18 g) was added into organic layer and stirred it for 30 mins. Acetic acid (150 ml) was added into reaction mixture. Dichloromethane was distilled out atmospherically from reaction mixture. Acetic acid (200 ml) and water (50 ml) were added into the reaction mixture. Water (1250 ml) was taken into another round bottom flask at 30±5° C. and cooled to 7±3° C. Reaction mixture was added into water containing round bottom flask within 15-30 minutes at 7±3° C. and after addition, reaction mixture's temperature allowed to come to 20±2° C. Reaction mixture was stirred for 30 minutes at 20±2° C. Reaction mixture was filtered and washed it with water (50 ml). Solid was dried to get Vortioxetine Hydrobromide (Form Ad) under vacuum for 6-8 hrs at 45±3° C. (Moisture content of solid is less than 1.0% w/w) […]
# [2] = Polymorphic stability on exposure to moisture; type: physicochemical
# Protocol: Vortioxetine Adipate (30.0 g) and dichloromethane (450 ml) were charged in round bottom flask stirred it for 5 mins. Solution of NaOH (8.1 g in 300 ml water) and solution of NaCl (7.5 g in 75 ml water) were added into above resulting solution and stirred it till clear solution was observed. Organic layer was separated out. HBr in acetic acid (18 g) was added into organic layer and stirred it for 30 mins. Acetic acid (150 ml) was added into reaction mixture. Dichloromethane was distilled out atmospherically from reaction mixture. Acetic acid (200 ml) and water (50 ml) were added into the reaction mixture. Water (1250 ml) was taken into another round bottom flask at 30±5° C. and cooled to 7±3° C. Reaction mixture was added into water containing round bottom flask within 15-30 minutes at 7±3° C. and after addition, reaction mixture's temperature allowed to come to 20±2° C. Reaction mixture was stirred for 30 minutes at 20±2° C. Reaction mixture was filtered and washed it with water (50 ml). Solid was dried to get Vortioxetine Hydrobromide (Form Ad) under vacuum for 6-8 hrs at 45±3° C. (Moisture content of Vortioxetine Hydrobromide (Form Ad) is less than 1.0% w/w). Vortioxetine Hydrobromide (Form Ad) was exposed at 40% RH and 25° C. for 2 hours to get Vortioxetine Hydrobromide (Form A). (Moisture content of Vortioxetine Hydrobromide (Form A) is between 4.2-4.8% w/w)
Compound,Moisture content ([1]; after Form Ad was exposed at 40% RH and 25° C. for 2 hours),Form change when exposed to moisture [2],Moisture content ([1]; solid dried under vacuum for 6-8 hrs at 45±3° C.)
"Cc1ccc(Sc2ccccc2N2CCNCC2)c(C)c1 [Vortioxetine Hydrobromide (Form A), Vortioxetine Hydrobromide]",4.2-4.8 % w/w,–,–
"Cc1ccc(Sc2ccccc2N2CCNCC2)c(C)c1 [Vortioxetine Hydrobromide (Form Ad), Vortioxetine Hydrobromide]",–,converts into form A,less than 1.0 % w/w
